Values of other authors in patent US5070187A, “Pharmacologically effective antagonists of arginine-vasopressin” (priority 1989, dated 1991).

Details: in vivo

Substance: [8-arginine]-vasopressin
- urinary clearance relative to that occurring elsewhere in the body: less than 5%
